From US5147878A, “Aminoalkoxyphenyl derivatives, process of preparation and compositions containing the same” (Sanofi, priority 1986, dated 1992)

Experiments:
[1] = system: isolated rat aorta; assay: Calcium inhibitory properties: contractile response to potassium-induced depolarization on isolated rat aorta; set-up: species or system isolated organ, male Wistar rats; settings: for activity at 1 µM: 10^-6 M; for activity at 0.1 µM: 10^-7 M
How it was run: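 Contraction is expressed as % of the pre-incubation maximum, measured after a 60 min compound exposure and a fresh K+ (100 mM KCl) depolarization. Tissue: aortic strips from male Wistar rats, 2 g tension, modified Krebs-bicarbonate, 37° C, CO2/O2 gassed.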

[2] = system: epinephrine-induced increase in blood-pressure (anti-α effect); assay: Antiadrenergic properties: anti-α effect (reduction of epinephrine-induced hypertension); format: in vivo; set-up: key to anti-α effect: +: for a reduction < 50%; ++: for a reduction ≥ 50%; +++: for a reduction sub-total (almost complete reduction); settings: dog; for inhibition in vivo at 1 mg/kg: 1 mg/kg i.v.
How it was run: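 Pentobarbital-anaesthetised, atropinised dogs given an epinephrine dose of 3–10 μg/kg, titrated per animal to raise blood pressure about 133×10^2 Pa. After two reference responses, test compound given intravenously. Result is % reduction of epinephrine-induced hypertension versus reference.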

[3] = system: isoprenaline-induced acceleration in heart rate (anti-β effect); assay: Antiadrenergic properties: anti-β effect (reduction of isoprenaline-induced tachycardia); format: in vivo; set-up: key to anti-β effect: +: for a reduction < 50%; ++: for a reduction ≥ 50%; +++: for a reduction sub-total (almost complete reduction); settings: dog; for inhibition in vivo at 1 mg/kg: 1 mg/kg i.v.
How it was run: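 Pentobarbital-anaesthetized, atropinized dogs given isoprenaline (1–2 μg/kg, dose set per dog for ~70 beats/min rise) alternating with epinephrine every 10 min. After two reference responses, compound given intravenously; % reduction in isoprenaline tachycardia versus reference recorded.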

[4] = Acute toxicity, intravenous, Litchfield and Wilcoxon; settings: mouse, in vivo, mice
Protocol: The acute toxicity of the compounds of the invention was determined intravenously in mice according to the method of Litchfield and Wilcoxon (J. Pharm. Exp. Therap. […], 96, 99).
The following results were obtained, expressed in the form of the LD50, compared with a benzoylindolizine derivative, in this case 2-ethyl-3-{4-[3-(di-n-butylamino)propyloxy]benzoyl}indolizine or butoprozine.

[5] = Rattus norvegicus, 1 h, read-out: % of the maximum contractional effect
[6] = Canis lupus familiaris, iv, 5 mg/kg i.v.

| Compound | activity at 1 µM [1, 5] | activity at 0.1 µM [1, 5] | inhibition in vivo at 1 mg/kg ([2]; Canis lupus familiaris, iv) | inhibition in vivo at 1 mg/kg ([3]; Canis lupus familiaris, iv) | LD50 [4] | Activity ratio ([1]; compound / Compound E) | anti-α effect ([2]; 5 mg/kg i.v.) | anti-β effect ([3]; 5 mg/kg i.v.) | activity at 0.01 µM ([1]; Rattus norvegicus, 1 h, 10^-8 M, read-out: % of the maximum contractional effect) | activity at 0.001 µM ([1]; Rattus norvegicus, 1 h, 10^-9 M, read-out: % of the maximum contractional effect) | anti-α effect ([2]; 0.1 mg/kg i.v.) | inhibition in vivo at 0.1 mg/kg ([3]; Canis lupus familiaris, iv, 0.1 mg/kg i.v.) | Activity ratio ([1]; compound / Compound C) | inhibition in vivo at 5 mg/kg [2, 6] | inhibition in vivo at 5 mg/kg [3, 6] |
| --- | --- | --- | --- | --- | --- | --- | --- | --- | --- | --- | --- | --- | --- | --- | --- |
| CCCCN(CCCC)CCCOc1ccc(S(=O)(=O)c2c(CCC)cn3ccccc23)cc1.O=C(O)C(=O)O [Ex. 11, 2-n-Propyl-1-{4-[3-(di-n-butylamino)propyloxy]benzenesulphonyl}indolizine oxalate] | 8.8% | 37.7% | ≥ 50% | ≥ 50% | 28 mg/kg | – | – | – | – | – | – | – | – | – | – |
| CCCN(CCC)CCCOc1ccc(S(=O)(=O)c2c(CC)cn3ccccc23)cc1.Cl [Ex. 7, 2-Ethyl-1-{4-[3-(di-n-propylamino)propyloxy]benzenesulphonyl}indolizine hydrochloride] | 8.3% | 60% | – | – | 26 mg/kg | 6.0 | +++ | +++ | – | – | – | – | – | – | – |
| CCCCN(CCCC)CCCOc1ccc(S(=O)(=O)c2c(CC)cn3ccccc23)cc1C.Cl [Ex. 9, 2-Ethyl-1-{4-[3-(di-n-butylamino)propyloxy]-3-methylbenzenesulphonyl}indolizine hydrochloride] | 17.4% | 57.2% | ≥ 50% | ≥ 50% | 55 mg/kg | – | – | – | – | – | – | – | – | – | – |
| CCc1cn2ccccc2c1S(=O)(=O)c1ccc(OCCCN(C)CCc2ccc(OC)c(OC)c2)cc1 [Ex. 28, 2-Ethyl-1-[4-{3-[N-methyl-N-(3,4-dimethoxy-β-phenethyl)-amino]propyloxy}benzenesulphonyl]indolizine] | – | 14.2% | – | – | 32 mg/kg | – | – | – | 60.2% | 85.4% | +++ | ≥ 50% | – | – | – |
| CCCCc1cn2ccccc2c1S(=O)(=O)c1ccc(OCCCN(CCCC)CCCC)cc1.O=C(O)C(=O)O [Ex. 13, 2-n-Butyl-1-{4-[3-(di-n-butylamino)propyloxy]benzenesulphonyl}indolizine oxalate] | 39.8% | – | – | – | 31 mg/kg | – | – | – | – | – | – | – | 2.0 | ≥ 50% | ≥ 50% |
